The record followed here is patent US20240108641A1, “COMPOSITIONS FOR ORAL ADMINISTRATION OF ZOLEDRONIC ACID OR RELATED COMPOUNDS FOR TREATING DISEASE” (ANTECIP BIOVENTURES II LLC, priority 2012, published 2024).

Data set [1] relates to arthritis pain (mechanical hyperalgesia). The data set can be described thus: rat complete Freund's adjuvant (CFA) model of arthritis pain. The format is in vivo. Conditions: oral administration; day 14 post CFA. As to the method:
The effect of orally administered zoledronic acid on arthritis pain was examined in the rat complete Freund's adjuvant (CFA) model of arthritis pain. In this model, injection of 100% complete Freund's adjuvant (CFA) in a 75 μL volume into the left hind paws is followed by a 10-14 day period to allow for the development of arthritis pain. Animals were orally administered vehicle (control), zoledronic acid 54 mg/m^2 (or 9 mg/kg), or zoledronic acid 360 mg/m^2 (or 60 mg/kg), divided in three equal daily doses on the first three days post CFA injection. Drug was dissolved in distilled water and prepared fresh daily. Animals were fasted prior to dosing.
Arthritis pain (mechanical hyperalgesia) in the vehicle and drug-treated animals was evaluated on day 14 post CFA injection using a digital Randall-Selitto device (dRS; IITC Life Sciences, Woodland Hills, CA). Animals were placed in a restraint sling that suspended the animal, leaving the hind limbs available for testing. Paw compression threshold was measured by applying increasing pressure to the plantar surface of the hind paw with a dome-shaped tip placed between the 3rd and 4th metatarsus. Pressure was applied gradually over approximately 10 seconds. […]
Reversal of arthritis pain in the ipsilateral (CFA-injected) paw was calculated according to the formula: […]

Data set [2] can be described thus: in vivo. To be noted: beagle, dog, po, 150 mg. On the procedure: Tablets were manufactured containing either pure zoledronic acid or the disodium salt of zoledronic acid (disodium zoledronate tetrahydrate). Both types of tablets contained 50 mg of zoledronic acid equivalent per tablet. Identical excipients were used in both types of tablets, with amounts adjusted to account for the difference in molecular weights between the acid and the disodium salt.
Beagle dogs were orally administered tablets containing 150 mg zoledronic acid equivalent either in the form of disodium zoledronate (Group 1) or pure zoledronic acid (Group 2). Each animal was given three 50 mg equivalent tablets (150 mg total), which were administered together. The animal's oral cavity was wetted with water before placing the tablets on the back of the animal's tongue. Animals were fasted before and after dosing. Animals were 6 to 9 months of age and weighed 6 to 10 kg on the day of dosing. There were three dogs per group.
Serial blood samples were collected from each animal by venipuncture of the jugular vein at various points after dosing for measurement of plasma concentrations of zoledronic acid. Blood samples were collected into chilled tubes containing K2EDTA as the anticoagulant. Samples were then centrifuged at approximately 3000 rpm at +4° C. for 10 minutes for plasma derivation. Plasma concentrations of zoledronic acid were measured using an LC/MS/MS method.

For data set [3], the system named is complex regional pain syndrome (CRPS). The data set can be described thus: rat tibia fracture model of CRPS, dosing starting four weeks after fracture. The data set is classed as in vivo. On the procedure: A study was performed to evaluate the efficacy of bisphosphonates such as oral zoledronic acid in inhibiting immune responses and pain behavior in a rat fracture model of CRPS.
The effect of orally administered zoledronic acid was examined in the rat tibia fracture model of complex regional pain syndrome (CRPS). CRPS was induced in the rats by fracturing the right distal tibias of the animals and casting the fractured hindpaws for 4 weeks, as described in Guo T Z et al. (Pain. 2004; 108: 95-107).
Starting four weeks after fracture and casting, animals were orally administered either vehicle (control) or zoledronic acid, a dose of 21 mg/kg on the first day and 3 mg/kg/day daily thereafter, or distilled water for 3 weeks (weeks 4-7 post-fracture). Drug was dissolved in distilled water and administered by gavage. Animals were fasted for 4 hours before and 2 hours after dosing. At the end of the 21-day period, casts were removed, and on the following day, the rats were tested for hindpaw pain, edema, and warmth.

Where [4] appears, read: oral 21 mg/kg first day then 3 mg/kg/day, weeks 4-7 post-fracture.

`O=P(O)(O)C(O)(Cn1ccnc1)P(=O)(O)O` [zoledronic acid]: the “arthritis pain thresholds compared to vehicle” value in data set [1] was “significantly improved”. In addition, the AUC(0-inf) in data set [2] came out at 2220 ng·h/mL. Moreover, in data set [3] (setting [4]), the hindlimb weight bearing entry is “over 90 % of normal”; the “overall effect compared to vehicle treated animals” value is “reversed pain and restored weight bearing”; the “von Frey pain thresholds for the right (fracture) hindpaw, change as compared to baseline” value is on record as “over 100%”. The “pain relief, dosing four weeks after fracture versus dosing at the time of injury” value in data set [3] (oral, FIG. 18) is “significantly greater improvement of pain relief”.
